In patent US20150018403A1, “FLUORENE-AMIDE COMPOUNDS AND PHARMACEUTICAL USE THEREOF” (JAPAN TOBACCO INC., priority 2013, published 2015):

Legend:
tissue PDH activity = assay: Ex vivo PDH activation assay (liver and epididymal adipose tissue mitochondrial fractions after oral dosing); assay type: in vivo, Sprague-Dawley rats; conditions: 3 mg/kg, rat
Protocol: The action of test compound on tissue PDH activity was evaluated. NADH production was detected via p-iodonitrotetrazolium violet (INT)-coupled system to measure PDH activity.
Normal male Sprague-Dawley rats were randomly allocated m to the vehicle group and the test compound groups. The vehicle (0.5% aqueous methylcellulose solution, 5 mL/kg) or the test compound was orally administered to the rats. At 5 or 20 hr after administration, the rats were anesthetized with an intraperitoneal injection of sodium pentobarbital (60 mg/kg), and liver slices and epididymal adipose tissues were collected.
To the liver slices were rapidly added 9 volumes of ice-cold homogenization buffer (0.25 mol/L sucrose, 5 mmol/L tris(hydroxymethyl)aminomethane hydrochloride (pH 7.5), 2 mmol/L EDTA), and the mixtures were homogenized using a Polytron homogenizer. The homogenates were centrifuged at 600×g, 4° C. for 10 min to obtain the supernatant. The supernatants (1 mL) were centrifuged at 16,000×g, 4° C. for 10 min to collect the precipitates. The precipitates were washed by resuspension in the homogenization buffer (1 mL) and centrifuged in the same manner. The precipitates were frozen with liquid nitrogen and stored at −80° C. as the liver mitochondrial fraction.
To the adipose tissues were rapidly added 3 volumes of an ice-cold homogenization buffer, and the mixtures were homogenized using a Polytron homogenizer. The homogenates were centrifuged at 600×g, 4° C. for 10 min to obtain the supernatant. The supernatants were centrifuged at 16,000×g, 4° C. for 10 min to collect the precipitates. The precipitates were washed by resuspension in the homogenization buffer (1 mL) and centrifuged in the same manner. The precipitates were frozen with liquid nitrogen and stored at −80° C. as the adipose tissue mitochondrial fraction.
The mitochondrial fractions were thawed and suspended with the sample buffer (0.25 mol/L sucrose, 20 mmol/L tris(hydroxymethyl)aminomethane hydrochloride (pH 7.5), 50 mmol/L potassium chloride, and 1 mL/L 4-(1,1,3,3-tetramethylbutyl)phenyl-polyethylene glycol (Triton X-100)). Active PDH activity (PDHa activity) and total PDH activity (PDHt activity) were measured to evaluate the PDH activity. For the measurement of the PDHt activity, equal amounts of the mitochondrial suspension and the activation buffer (0.25 mol/L sucrose, 20 mmol/L tris(hydroxymethyl)aminomethane hydrochloride (pH 7.5), 50 mmol/L potassium chloride, 1 mL/L Triton X-100, 4 mmol/L calcium chloride, 40 mmol/L magnesium chloride, 10 mmol/L sodium dichloroacetate) were mixed, and the mixtures were incubated at 37° C. for 10 min. Forty microliters of the mitochondrial suspensions diluted with a sample buffer were added to a 96-well microplate for activity measurement and blank measurement. Then 180 μL of the reaction mixture (0.056 mmol/L potassium phosphate buffer (pH 7.5), 5.6 mmol/L DL-carnitine, 2.8 mmol/L NAD, 0.22 mmol/L thiamin pyrophosphate, 0.11 mmol/L Coenzyme A, 1.1 mL/L Triton X-100, 1.1 mmol/L magnesium chloride, 1.1 g/L bovine serum albumin, 0.67 mmol/L INT, 7.2 μmol/L phenazine methosulfate, 28 mmol/L sodium oxamate) was added to each well, and then 20 μL of 50 mmol/L sodium pyruvate for activity measurement or water for blank measurement were added. The mixtures were incubated at room temperature under shading. The absorbances at 500-750 nm, which were attributable to reduction of INT, the final electron acceptor, were measured using a microplate reader over time and the changes in the absorbance were calculated. The PDH activity was calculated by subtraction of the change in absorbance of the blank well from that of the activity measurement well. The percentage of the PDHa activity to the PDHt activity was calculated and taken as an index of the PDH activation.

[1] = Effect of repeated administration on HbA1c in ZDF rats; assay type: in vivo, Zucker Diabetic Fatty rats; conditions: 1 mg/kg oral once daily, day 27 of administration, vehicle 4.4 ± 0.4, p < 0.05 vs. vehicle
Protocol: Zucker Diabetic Fatty rats (male, 7-week-old, CHARLES RIVER LABORATORIES JAPAN INC.), an animal model for type 2 diabetes, given a purified diet (5.9% fat diet, Oriental Yeast Co., Ltd.) were allocated to the vehicle group and the test compound groups so that no bias occurred in the plasma glucose and insulin levels, HbA1c levels and body weights. Repeated oral doses of the test compound (1 mg/kg/5 mL) were administered to the rats once daily at 3 hr before the dark period. A 0.5% aqueous methylcellulose solution was orally administered in the same manner to the rats of the vehicle group. On day 27 of administration, blood samples were collected from the tail vein and HbA1c level (%) was measured. Statistical analysis was performed by Dunnett's test. Values of p<0.05 were considered statistically significant.

SMILES: C[C@H](O)COc1cc(-c2cnn(C(C)(C)C(N)=O)c2)c2c(c1)[C@@](O)(C(F)(F)F)c1ccccc1-2 [compound (2), 2-(4-{(9R)-9-hydroxy-2-[(2S)-2-hydroxypropoxy]-9-(trifluoromethyl)-9H-fluoren-4-yl}-1H-pyrazol-1-yl)-2-methylpropanamide]
- PDHa activity (% PDHt activity) (tissue PDH activity; adipose tissue, 5 hr after oral administration): 72 ± 4 % PDHt activity
- PDHa activity (% PDHt activity) (tissue PDH activity; adipose tissue, 20 hr after oral administration): 44 ± 6 % PDHt activity
- PDHa activity (% PDHt activity) (tissue PDH activity; liver, 5 hr after oral administration): 67 ± 11 % PDHt activity
- PDHa activity (% PDHt activity) (tissue PDH activity; liver, 20 hr after oral administration): 41 ± 11 % PDHt activity
- HbA1c (%) [1]: 3.9 ± 0.5 %
